According to patent US7297700B2, “Bicycloheteroaryl compounds as P2X7 modulators and uses thereof” (Renovis, Inc., priority 2005, dated 2007):

system: IL-1β release from THP-1 cells; assay: IL-1β Release Assay (Alternate Method), THP-1 cells; format: cell-based, human; conditions: Homo sapiens, THP-1, read-out: IL-1β % inhibition
How it was run: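 THP-1 cells differentiated 16 h with 100 ng/mL LPS plus 100 ng/mL IFN-γ, reprimed 2 h with 100 ng/mL LPS, pretreated 30 min with compound, then challenged 45 min with 250 uM BzATP (final). Supernatant IL-1β quantified by ELISA; percent inhibition from background-adjusted levels versus untreated cells.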

| Structure (SMILES) | inhibition at 0.3 µM [%] |
| --- | --- |
| O=C(CC12CC3CC(CC(C3)C1)C2)Nc1ncnc2c1CCN(CC(O)CO)C2 (stereo not shown) [Compound 23, 2-Adamantan-1-yl-N-[7-(2,3-dihydroxy-propyl)-5,6,7,8-tetrahydro-pyrido[3,4-d]pyrimidin-4-yl]-acetamide] | 0 to 25 |

same assay, conditions: Homo sapiens; at 0.3 μM; THP-1 cells; read-out: IL-1β % inhibition

| Structure (SMILES) | inhibition at 0.3 µM [%] |
| --- | --- |
| O=C(NCC12CC3CC(CC(C3)C1)C2)c1ncnc2c1CCN(Cc1ccccc1)C2 [Compound 17, 7-Benzyl-N-adamantylmethyl-5,6,7,8-tetrahydropyrido[3,4-d]pyrimidine-4-carboxamide] | > 75 |

same assay, conditions: at 0.3 μM; THP-1 cells

| Structure (SMILES) | IL-1β % inhibition |
| --- | --- |
| CC12CC3CC(C)(C1)CC(CC(=O)Nc1ncnc4c1CCN(S(=O)(=O)c1cccc(F)c1F)C4)(C3)C2 [Compound 381] | + (compound exhibited 0-25% inhibition at 0.3 μM) |
| Cc1ccc(Cl)c(CN2CCc3c(ncnc3NC(=O)CC34CC5CC(CC(C5)C3)C4)C2)c1F [Compound 87] | ++ (compound exhibited 25-50% inhibition at 0.3 μM) |
| O=C(CC12CC3CC(CC(C3)C1)C2)Nc1ncnc2c1CCN(C(=O)c1ccc(Cl)cc1Cl)C2 [Compound 258] | ++++ (compound exhibited 75% or greater inhibition at 0.3 μM) |
| CC12CC3CC(C)(C1)CC(CC(=O)Nc1ncnc4c1CCN(C(=O)c1c(F)cccc1Cl)C4)(C3)C2 [Compound 389] | ++ (compound exhibited 25-50% inhibition at 0.3 μM) |
| O=C(CC1CCCCC1)Nc1ncnc2c1CCN(CCCO)C2 [Compound 21] | + (compound exhibited 0-25% inhibition at 0.3 μM) |
| O=C(CC12CC3CC(CC(C3)C1)C2)Nc1ncnc2c1CCN(Cc1ccccc1OCCO)C2 [Compound 100] | ++ (compound exhibited 25-50% inhibition at 0.3 μM) |
| O=C(CC12CC3CC(CC(C3)C1)C2)Nc1ncnc2c1CCN(S(=O)(=O)c1ccc(Oc3ccc(C(F)(F)F)cc3)cc1)C2 [Compound 177] | ++ (compound exhibited 25-50% inhibition at 0.3 μM) |
| Cc1ccc(C2(CNC(=O)c3ncnc4c3CCN(Cc3ccccc3)C4)CCCCC2)cc1 [Compound 60] | + (compound exhibited 0-25% inhibition at 0.3 μM) |
| O=C(CC12CC3CC(CC(C3)C1)C2)Nc1ncnc2c1CCN(C(=O)c1cnn(-c3ccccc3)c1C(F)(F)F)C2 [Compound 286] | +++ (compound exhibited 50-75% inhibition at 0.3 μM) |
| O=C(CC12CC3CC(CC(C3)C1)C2)Nc1ncnc2c1CCN(C(=O)c1cccnc1Cl)C2 [Compound 222] | +++ (compound exhibited 50-75% inhibition at 0.3 μM) |
| Cc1ccccc1S(=O)(=O)N1CCc2c(ncnc2NC(=O)CC23CC4CC(CC(C4)C2)C3)C1 [Compound 199] | ++++ (compound exhibited 75% or greater inhibition at 0.3 μM) |
| O=C(CC12CC3CC(CC(C3)C1)C2)Nc1ncnc2c1CCN(Cc1ccc(-c3ccccn3)cc1)C2 [Compound 65] | + (compound exhibited 0-25% inhibition at 0.3 μM) |
| CC(C)(C(=O)Nc1ncnc2c1CCN(Cc1ccccc1Cl)C2)C12CC3CC(CC(C3)C1)C2 [Compound 348] | + (compound exhibited 0-25% inhibition at 0.3 μM) |
| Cc1cccc(C(=O)N2CCc3c(ncnc3NC(=O)C34CC5CC(CC(C5)C3)C4)C2)c1 [Compound 403] | ++ (compound exhibited 25-50% inhibition at 0.3 μM) |
| CC(C)(C)CC(=O)N1CCc2c(ncnc2NC(=O)CC23CC4CC(C)(CC(C)(C4)C2)C3)C1 [Compound 388] | + (compound exhibited 0-25% inhibition at 0.3 μM) |
| CCC(=O)N1CCc2c(ncnc2NC(=O)CC23CC4CC(CC(C4)C2)C3)C1 [Compound 223] | + (compound exhibited 0-25% inhibition at 0.3 μM) |
| O=C(CC12CC3CC(CC(C3)C1)C2)Nc1ncnc2c1CCN(Cc1ccc(Cl)cc1F)C2 [Compound 328] | +++ (compound exhibited 50-75% inhibition at 0.3 μM) |
| Cc1noc(C)c1C(=O)N1CCc2c(ncnc2NC(=O)CC23CC4CC(CC(C4)C2)C3)C1 [Compound 297] | + (compound exhibited 0-25% inhibition at 0.3 μM) |

| Structure (SMILES) | IL-1β % inhibition |
| --- | --- |
| Cc1cc(C(=O)N2CCc3c(ncnc3NC(=O)CC34CC5CC(CC(C5)C3)C4)C2)c(C)o1 [Compound 293] | +++ (compound exhibited 50-75% inhibition at 0.3 μM) |
| N#Cc1ccc(S(=O)(=O)N2CCc3c(ncnc3NC(=O)CC34CC5CC(CC(C5)C3)C4)C2)c(Cl)c1 [Compound 165] | +++ (compound exhibited 50-75% inhibition at 0.3 μM) |
| Cc1nc(S(=O)(=O)N2CCc3c(ncnc3NC(=O)CC34CC5CC(CC(C5)C3)C4)C2)cn1C [Compound 164] | + (compound exhibited 0-25% inhibition at 0.3 μM) |
| O=C(CC12CC3CC(CC(C3)C1)C2)Nc1ncnc2c1CCN(Cc1ccc3ccccc3n1)C2 [Compound 73] | + (compound exhibited 0-25% inhibition at 0.3 μM) |
| O=C(CC12CC3CC(CC(C3)C1)C2)Nc1ncnc2c1CCN(S(=O)(=O)Cc1ccc(Cl)c(Cl)c1)C2 [Compound 185] | ++ (compound exhibited 25-50% inhibition at 0.3 μM) |
| Cc1ccc(S(=O)(=O)N2CCc3c(ncnc3NC(=O)CC34CC5CC(CC(C5)C3)C4)C2)cc1 [Compound 144] | +++ (compound exhibited 50-75% inhibition at 0.3 μM) |
| O=C(CC12CC3CC(CC(C3)C1)C2)Nc1ncnc2c1CCN(S(=O)(=O)c1cccc(C(F)(F)F)c1)C2 [Compound 154] | ++++ (compound exhibited 75% or greater inhibition at 0.3 μM) |
| Cc1cccc(C(=O)N2CCc3c(ncnc3NC(=O)CC34CC5CC(CC(C5)C3)C4)C2)c1 [Compound 230] | ++++ (compound exhibited 75% or greater inhibition at 0.3 μM) |
| O=C(CC12CC3CC(CC(C3)C1)C2)Nc1ncnc2c1CCN(S(=O)(=O)c1cc(Cl)ccc1F)C2 [Compound 205] | + (compound exhibited 0-25% inhibition at 0.3 μM) |
| O=C(CC12CC3CC(CC(C3)C1)C2)Nc1ncnc2c1CCN(C(=O)c1ccncc1)C2 [Compound 304] | + (compound exhibited 0-25% inhibition at 0.3 μM) |
| CC(C)(C(=O)Nc1ncnc2c1CCN(C(=O)CC1CCCC1)C2)C12CC3CC(CC(C3)C1)C2 [Compound 365] | + (compound exhibited 0-25% inhibition at 0.3 μM) |
| Cc1ccc(CN2CCc3c(ncnc3C(=O)NCC3CCCCC3)C2)cc1 [Compound 55] | + (compound exhibited 0-25% inhibition at 0.3 μM) |
| CC1(C)CCCC(O)(CNC(=O)c2ncnc3c2CCN(Cc2ccccc2)C3)C1 (stereo not shown) [Compound 59] | + (compound exhibited 0-25% inhibition at 0.3 μM) |
| CC(C)(C(=O)Nc1ncnc2c1CCN(C(=O)C1CCCCC1)C2)C12CC3CC(CC(C3)C1)C2 [Compound 366] | + (compound exhibited 0-25% inhibition at 0.3 μM) |
| O=C(NCC1CCCCC1)c1ncnc2c1CCN(Cc1cccc(Cl)c1)C2 [Compound 53] | + (compound exhibited 0-25% inhibition at 0.3 μM) |
| O=C(CC12CC3CC(CC(C3)C1)C2)Nc1ncnc2c1CCN(Cc1cccc(Oc3ccccc3)c1)C2 [Compound 68] | + (compound exhibited 0-25% inhibition at 0.3 μM) |
| O=C(CC12CC3CC(CC(C3)C1)C2)Nc1ncnc2c1CCN(CCCc1ccccc1)C2 [Compound 63] | + (compound exhibited 0-25% inhibition at 0.3 μM) |

same assay, conditions: at 0.3 μM; THP-1 cells, BzATP-stimulated

| Structure (SMILES) | IL-1β % inhibition |
| --- | --- |
| COc1ccc(CN2CCc3c(ncnc3NC(=O)C34CC5CC(CC(C5)C3)C4)C2)cc1O [Compound 593] | + (compound exhibited 0-25% inhibition at 0.3 μM) |
| O=C(Nc1ncnc2c1CCN(Cc1ccc3c(c1)OCCO3)C2)C12CC3CC(CC(C3)C1)C2 [Compound 589] | +++ (compound exhibited 50-75% inhibition at 0.3 μM) |
| O=C(Nc1ncnc2c1CCN(Cc1ccc(OC(F)F)cc1)C2)C12CC3CC(CC(C3)C1)C2 [Compound 621] | +++ (compound exhibited 50-75% inhibition at 0.3 μM) |
| O=C(c1ccc(Cl)c(Cl)c1)N1CCc2c(ncnc2NC(=O)C23CC4CC(CC(C4)C2)C3)C1 [Compound 417] | + (compound exhibited 0-25% inhibition at 0.3 μM) |
| O=C(COCc1ccccc1)N1CCc2c(ncnc2NC(=O)C23CC4CC(CC(C4)C2)C3)C1 [Compound 428] | + (compound exhibited 0-25% inhibition at 0.3 μM) |
| O=C(Nc1ncnc2c1CCN(CC1CCCCC1)C2)C12CC3CC(CC(C3)C1)C2 [Compound 556] | + (compound exhibited 0-25% inhibition at 0.3 μM) |
| COc1ccc(C)cc1S(=O)(=O)N1CCc2c(ncnc2NC(=O)C23CC4CC(CC(C4)C2)C3)C1 [Compound 548] | + (compound exhibited 0-25% inhibition at 0.3 μM) |
| CCCCCN1CCc2c(ncnc2NC(=O)C23CC4CC(CC(C4)C2)C3)C1 [Compound 558] | ++ (compound exhibited 25-50% inhibition at 0.3 μM) |
| O=C(C(c1ccccc1)c1ccccc1)N1CCc2c(ncnc2NC(=O)C23CC4CC(CC(C4)C2)C3)C1 [Compound 409] | + (compound exhibited 0-25% inhibition at 0.3 μM) |
| COc1ccc(S(=O)(=O)N2CCc3c(ncnc3NC(=O)C34CC5CC(CC(C5)C3)C4)C2)cc1OC [Compound 489] | +++ (compound exhibited 50-75% inhibition at 0.3 μM) |
| O=C(c1cccc(Cl)c1)N1CCc2c(ncnc2NC(=O)C23CC4CC(CC(C4)C2)C3)C1 [Compound 425] | + (compound exhibited 0-25% inhibition at 0.3 μM) |
| CCOc1ccc(CN2CCc3c(ncnc3NC(=O)C34CC5CC(CC(C5)C3)C4)C2)cc1 [Compound 630] | ++++ (compound exhibited 75% or greater inhibition at 0.3 μM) |
| CC(CN1CCc2c(ncnc2NC(=O)C23CC4CC(CC(C4)C2)C3)C1)c1ccccc1 (stereo not shown) [Compound 554] | ++++ (compound exhibited 75% or greater inhibition at 0.3 μM) |
| O=C(Nc1ncnc2c1CCN(Cc1ccc(Cl)cc1F)C2)C12CC3CC(CC(C3)C1)C2 [Compound 635] | + (compound exhibited 0-25% inhibition at 0.3 μM) |
| COc1cc(CN2CCc3c(ncnc3NC(=O)C34CC5CC(CC(C5)C3)C4)C2)ccc1F [Compound 629] | + (compound exhibited 0-25% inhibition at 0.3 μM) |
